Molecules are shown by their SMILES. pIC50: −log10 of the molar value.

T1 sequence (P14902 whole entry): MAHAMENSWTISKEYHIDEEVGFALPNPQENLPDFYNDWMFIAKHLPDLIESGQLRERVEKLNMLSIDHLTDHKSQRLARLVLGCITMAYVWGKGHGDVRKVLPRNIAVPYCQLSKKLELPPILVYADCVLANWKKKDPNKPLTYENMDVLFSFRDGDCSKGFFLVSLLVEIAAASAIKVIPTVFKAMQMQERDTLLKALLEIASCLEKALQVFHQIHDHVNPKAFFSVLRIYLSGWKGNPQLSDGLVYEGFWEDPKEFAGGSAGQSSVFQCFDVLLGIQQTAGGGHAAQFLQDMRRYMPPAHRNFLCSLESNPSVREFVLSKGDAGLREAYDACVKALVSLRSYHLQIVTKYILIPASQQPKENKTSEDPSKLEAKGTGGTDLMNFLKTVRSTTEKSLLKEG

The test addresses T1, human IDO1 (Homo sapiens, UniProt P14902).
T1 construct: expressed in transfected cells
Nature of the test: IDO inhibition assay in HEK293 cells stably expressing human IDO1 (kynurenine production, Ehrlich reagent, absorbance 490 nm). The format is cell-based. To be noted: 20 hours incubation with compound, 500 nM reference standard = 100% inhibition, read-out: IDO1 HEK Human IC50. In short, it runs like this:
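HEK293 clones stably expressing human IDO1 (10,000 cells/well, phenol red-free RPMI, 10% FBS) were treated with compound for 20 hours at 37° C. After 0.2% TCA and 30 min at 50° C., kynurenine was read with Ehrlich reagent at 490 nm. IC50 was normalised to DMSO (0%) and 500 nM reference standard (100%).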
Turning to `Cc1ccc(Nc2cc(-c3ccccc3-c3nnn[nH]3)nc(N(Cc3ccccc3)CC(C)C)c2)cc1` [Example 148, 6-(2-(1H-tetrazol-5-yl)phenyl)-N2-benzyl-N2-isobutyl-N4-(p-tolyl)pyridine-2,4-diamine], the negative-log IC50 (pIC50) was 8.32.
As to `CCCc1cnc(Nc2cc(-c3ccccc3-c3nnn[nH]3)nc(N(Cc3ccccc3)CC(C)C)c2)nc1` [Example 149, 6-(2-(1H-tetrazol-5-yl)phenyl)-N2-benzyl-N2-isobutyl-N4-(5-propylpyrimidin-2-yl)pyridine-2,4-diamine], the pIC50 was 7.75.
For `CC(C)CN(Cc1ccccc1)c1cc(Nc2ccc(C#N)cn2)cc(-c2ccccc2-c2nnn[nH]2)n1` [Example 150, 6-((2-(2-(1H-tetrazol-5-yl)phenyl)-6-(benzyl(isobutyl)amino)pyridin-4-yl)amino)nicotinonitrile] the value was 7.62; for `CC(C)CN(Cc1ccccc1)c1cc(Nc2nc(C(F)(F)F)ccc2F)cc(-c2ccccc2-c2nnn[nH]2)n1` [Example 151, 6-(2-(1H-tetrazol-5-yl)phenyl)-N2-benzyl-N4-(3-fluoro-6-(trifluoromethyl)pyridin-2-yl)-N2-isobutylpyridine-2,4-diamine], 6.55; for `Cc1cc(F)cnc1Nc1cc(-c2ccccc2-c2nnn[nH]2)nc(N(Cc2ccccc2)CC(C)C)c1` [Example 152, 6-(2-(1H-tetrazol-5-yl)phenyl)-N2-benzyl-N4-(5-fluoro-3-methylpyridin-2-yl)-N2-isobutylpyridine-2,4-diamine], 6.89.
For `CC(C)CN(Cc1ccccc1)c1cc(Nc2ccc3ccccc3n2)cc(-c2ccccc2-c2nnn[nH]2)n1` [Example 154, 6-(2-(1H-tetrazol-5-yl)phenyl)-N2-benzyl-N2-isobutyl-N4-(quinolin-2-yl)pyridine-2,4-diamine] the value was 7.27.
Regarding `CC(C)CN(Cc1ccccc1)c1cc(Nc2ccnc3ccnn23)cc(-c2ccccc2-c2nnn[nH]2)n1` [Example 155, 6-(2-(1H-tetrazol-5-yl)phenyl)-N2-benzyl-N2-isobutyl-N4-(pyrazolo[1,5-a]pyrimidin-7-yl)pyridine-2,4-diamine], the negative-log IC50 (pIC50) was 6.88.
With `CC(C)CN(Cc1ccccc1)c1cc(Nc2nc3ccc(F)cc3s2)cc(-c2ccccc2-c2nnn[nH]2)n1` [Example 156, 6-(2-(1H-tetrazol-5-yl)phenyl)-N2-benzyl-N4-(6-fluorobenzo[d]thiazol-2-yl)-N2-isobutylpyridine-2,4-diamine], the negative-log IC50 (pIC50) was 6.94.
On to `Cc1ccc(Nc2cc(-c3ccccc3-c3nnn[nH]3)nc(N(Cc3ccccc3)CC(C)C)c2)nn1` [Example 157, 6-(2-(1H-tetrazol-5-yl)phenyl)-N2-benzyl-N2-isobutyl-N4-(6-methylpyridazin-3-yl)pyridine-2,4-diamine], for which the negative logarithm of the IC50 (pIC50) is 6.27.
`CC(C)CN(Cc1ccccc1)c1cc(Nc2ncc(C(C)C)cn2)cc(-c2ccccc2-c2nnn[nH]2)n1` [Example 158, 6-(2-(1H-tetrazol-5-yl)phenyl)-N2-benzyl-N2-isobutyl-N4-(5-isopropylpyrimidin-2-yl)pyridine-2,4-diamine]: the pIC50 was 6.35.
As for `CC(C)CN(Cc1ccccc1)c1cc(Nc2ncc(C(N)=O)cc2F)cc(-c2ccccc2-c2nnn[nH]2)n1` [Example 159, 6-((2-(2-(1H-tetrazol-5-yl)phenyl)-6-(benzyl(isobutyl)amino)pyridin-4-yl)amino)-5-fluoronicotinamide], the figure is 6.56; as for `CC(C)CN(Cc1ccccc1)c1cc(Nc2cccnc2F)cc(-c2ccccc2-c2nnn[nH]2)n1` [Example 160, 6-(2-(1H-tetrazol-5-yl)phenyl)-N2-benzyl-N4-(2-fluoropyridin-3-yl)-N2-isobutylpyridine-2,4-diamine], 7.63.
With `Cc1nc2ccc(Nc3cc(-c4ccccc4-c4nnn[nH]4)nc(N(Cc4ccccc4)CC(C)C)c3)cc2s1` [Example 161, 6-(2-(1H-tetrazol-5-yl)phenyl)-N2-benzyl-N2-isobutyl-N4-(2-methylbenzo[d]thiazol-6-yl)pyridine-2,4-diamine], the negative-log IC50 (pIC50) was 8.68.
Take `CCc1cnc(Nc2cc(-c3ccccc3-c3nnn[nH]3)nc(N(Cc3ccccc3)CC(C)C)c2)nc1` [Example 162, 6-(2-(1H-tetrazol-5-yl)phenyl)-N2-benzyl-N4-(5-ethylpyrimidin-2-yl)-N2-isobutylpyridine-2,4-diamine]: the pIC50 was 7.58.
As to `CC(C)CN(Cc1ccccc1)c1cc(Nc2ncccc2C#N)cc(-c2ccccc2-c2nnn[nH]2)n1` [Example 163, 2-((2-(2-(1H-tetrazol-5-yl)phenyl)-6-(benzyl(isobutyl)amino)pyridin-4-yl)amino)nicotinonitrile], the negative-log IC50 (pIC50) was 6.13.
For the molecule `CC(C)CN(Cc1ccccc1)c1cc(Nc2cnc(Cl)nc2)cc(-c2ccccc2-c2nnn[nH]2)n1` [Example 164, 6-(2-(1H-tetrazol-5-yl)phenyl)-N2-benzyl-N4-(2-chloropyrimidin-5-yl)-N2-isobutylpyridine-2,4-diamine], the negative-log IC50 (pIC50) is 8.10.
As to `CC(C)CN(Cc1ccccc1)c1cc(Nc2ccc3nncn3n2)cc(-c2ccccc2-c2nnn[nH]2)n1` [Example 165, 6-(2-(1H-tetrazol-5-yl)phenyl)-N4-([1,2,4]triazolo[4,3-b]pyridazin-6-yl)-N2-benzyl-N2-isobutylpyridine-2,4-diamine], the pIC50 was 5.95.
`CC(C)CN(Cc1ccccc1)c1cc(Nc2ccc(C(=O)O)cc2F)cc(-c2ccccc2-c2nnn[nH]2)n1` [Example 166, 4-((2-(2-(1H-tetrazol-5-yl)phenyl)-6-(benzyl(isobutyl)amino)pyridin-4-yl)amino)-3-fluorobenzoic acid]: the negative logarithm of the IC50 (pIC50) was 5.39.
With `Cc1nccnc1Nc1cc(-c2ccccc2-c2nnn[nH]2)nc(N(Cc2ccccc2)CC(C)C)c1` [Example 167, 6-(2-(1H-tetrazol-5-yl)phenyl)-N2-benzyl-N2-isobutyl-N4-(3-methylpyrazin-2-yl)pyridine-2,4-diamine], the pIC50 was 6.69.
For `Cc1cccnc1Nc1cc(-c2ccccc2-c2nnn[nH]2)nc(N(Cc2ccccc2)CC(C)C)c1` [Example 168, 6-(2-(1H-tetrazol-5-yl)phenyl)-N2-benzyl-N2-isobutyl-N4-(3-methylpyridin-2-yl)pyridine-2,4-diamine], the negative-log IC50 (pIC50) was 6.41.
As for `CC(C)CN(Cc1ccccc1)c1cc(Nc2ccc(F)c(Cl)c2)cc(-c2ccccc2-c2nnn[nH]2)n1` [Example 169, 6-(2-(1H-tetrazol-5-yl)phenyl)-N2-benzyl-N4-(3-chloro-4-fluorophenyl)-N2-isobutylpyridine-2,4-diamine], the negative-log IC50 (pIC50) was 7.95.
On to `CC(C)CN(Cc1ccccc1)c1cc(Nc2ccc(F)cc2)cc(-c2ccccc2-c2nnn[nH]2)n1` [Example 170, 6-(2-(1H-tetrazol-5-yl)phenyl)-N2-benzyl-N4-(4-fluorophenyl)-N2-isobutylpyridine-2,4-diamine], for which the pIC50 was 8.31.
For the molecule `CC(C)CN(Cc1ccccc1)c1cc(Nc2ccc(Cl)cc2)cc(-c2ccccc2-c2nnn[nH]2)n1` [Example 171, 6-(2-(1H-tetrazol-5-yl)phenyl)-N2-benzyl-N4-(4-chlorophenyl)-N2-isobutylpyridine-2,4-diamine], the pIC50 was 8.96.
In the case of `COc1cnc(Nc2cc(-c3ccccc3-c3nnn[nH]3)nc(N(Cc3ccccc3)CC(C)C)c2)nc1` [Example 172, 6-(2-(1H-tetrazol-5-yl)phenyl)-N2-benzyl-N2-isobutyl-N4-(5-methoxypyrimidin-2-yl)pyridine-2,4-diamine], the pIC50 was 7.84.
As to `CC(C)CN(Cc1ccccc1)c1cc(Nc2ncnc3[nH]ccc23)cc(-c2ccccc2-c2nnn[nH]2)n1` [Example 173, 6-(2-(1H-tetrazol-5-yl)phenyl)-N2-benzyl-N2-isobutyl-N4-(7H-pyrrolo[2,3-d]pyrimidin-4-yl)pyridine-2,4-diamine], the negative logarithm of the IC50 (pIC50) was 6.59.
For the molecule `CC(C)CN(Cc1ccccc1)c1cc(Nc2ccc(Cl)cc2Cl)cc(-c2ccccc2-c2nnn[nH]2)n1` [Example 174, 6-(2-(1H-tetrazol-5-yl)phenyl)-N2-benzyl-N4-(2,4-dichlorophenyl)-N2-isobutylpyridine-2,4-diamine], the pIC50 is 7.78.
Regarding `Cc1cc(F)ccc1Nc1cc(-c2ccccc2-c2nnn[nH]2)nc(N(Cc2ccccc2)CC(C)C)c1` [Example 175, 6-(2-(1H-tetrazol-5-yl)phenyl)-N2-benzyl-N4-(4-fluoro-2-methylphenyl)-N2-isobutylpyridine-2,4-diamine], the negative-log IC50 (pIC50) is 7.26.
In the case of `Cc1cc(Nc2cc(-c3ccccc3-c3nnn[nH]3)nc(N(Cc3ccccc3)CC(C)C)c2)ccc1C#N` [Example 176, 4-((2-(2-(1H-tetrazol-5-yl)phenyl)-6-(benzyl(isobutyl)amino)pyridin-4-yl)amino)-2-methylbenzonitrile], the pIC50 was 7.98.
With `CC(C)CN(Cc1ccccc1)c1cc(Nc2ccccc2Cl)cc(-c2ccccc2-c2nnn[nH]2)n1` [Example 177, 6-(2-(1H-tetrazol-5-yl)phenyl)-N2-benzyl-N4-(2-chlorophenyl)-N2-isobutylpyridine-2,4-diamine], the negative logarithm of the IC50 (pIC50) was 7.76.
Regarding `CC(C)CN(Cc1ccccc1)c1cc(Nc2ncccc2F)cc(-c2ccccc2-c2nnn[nH]2)n1` [Example 178, 6-(2-(1H-tetrazol-5-yl)phenyl)-N2-benzyl-N4-(3-fluoropyridin-2-yl)-N2-isobutylpyridine-2,4-diamine], the negative-log IC50 (pIC50) was 7.23.
Consider `CC(C)CN(Cc1ccccc1)c1cc(Nc2ccccc2F)cc(-c2ccccc2-c2nnn[nH]2)n1` [Example 179, 6-(2-(1H-tetrazol-5-yl)phenyl)-N2-benzyl-N4-(2-fluorophenyl)-N2-isobutylpyridine-2,4-diamine], for which the pIC50 is 7.96.
`CC(C)CN(Cc1ccccc1)c1cc(Nc2ccc(Cl)cc2F)cc(-c2ccccc2-c2nnn[nH]2)n1` [Example 180, 6-(2-(1H-tetrazol-5-yl)phenyl)-N2-benzyl-N4-(4-chloro-2-fluorophenyl)-N2-isobutylpyridine-2,4-diamine]: the pIC50 was 8.66.

These data come from patent publication US12059420B2 (BRISTOL-MYERS SQUIBB COMPANY, priority 2018, dated 2024).
